# Source: ChEMBL document CHEMBL1201862, “PubChem BioAssay data set” (2004)
#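 Tested at 5 concentrations; 48 h exposure; 96-well plates; endpoints linearly interpolated, else capped at highest concentration. GI50: concentration for 50% inhibition of growth.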 Activity calls are given as the source filed them. Cut-off read from the data, not from the text of the source: active = GI50 up to about 1.1 µM and inactive = higher.
# Columns and labels:
# Assay in all cases: NCI-60 cell line screen, 48 h
# [1] = test system: EKVX
# [2] = test system: U-251
# [3] = test system: SNB-19
# [4] = test system: NCI-H522
# [5] = test system: RPMI-8226
# [6] = test system: HOP-18
# [7] = test system: M19-MEL
# [8] = test system: A549
# [9] = test system: HOP-62
# [10] = test system: Malme-3M
# [11] = test system: UACC-62
# [12] = test system: SK-OV-3
# [13] = test system: KM12
# [14] = test system: IGROV-1
# [15] = test system: M14
# [16] = test system: NCI-H23
# [17] = test system: HCT-15
# [18] = test system: SF-295
# [19] = test system: 786-0
# [20] = test system: OVCAR-3
# [21] = test system: TK-10
# [22] = test system: MOLT-4
# [23] = test system: COLO 205
# [24] = test system: NCI-H460
# [25] = test system: NCI-H226
# [26] = test system: SK-MEL-5
# [27] = test system: SF-539
# [28] = test system: SW-620
# [29] = test system: DMS-114
# [30] = test system: HL-60
# [31] = test system: DLD-1
# [32] = test system: SK-MEL-2
# [33] = test system: RXF 393
# [34] = test system: UO-31
# [35] = test system: SN12C
# [36] = test system: CCRF-CEM
# [37] = test system: K562
# [38] = test system: LOX IMVI
# [39] = test system: HCT-116
# [40] = test system: HT-29
# [41] = test system: SNB-75
# [42] = test system: DMS-273
# [43] = test system: SK-MEL-28
# [44] = test system: KM-20L2
# [45] = test system: UACC-257
# [46] = test system: OVCAR-8
# [47] = test system: ACHN
# [48] = test system: XF498
compound,measurement,setting,value
CC1Cc2c(N)nc(N3CCOCC3)nc2NC1=O (stereo not drawn),GI50,[1],> 100 µM (inactive)
same,GI50,[2],> 100 µM (inactive)
same,GI50,[3],> 100 µM (inactive)
same,GI50,[4],> 100 µM (inactive)
same,GI50,[5],> 100 µM (inactive)
same,GI50,[6],> 100 µM (inactive)
same,GI50,[7],> 100 µM (inactive)
same,GI50,[8],> 100 µM (inactive)
same,GI50,[9],> 100 µM (inactive)
same,GI50,[10],> 100 µM (inactive)
same,GI50,[11],> 100 µM (inactive)
same,GI50,[12],> 100 µM (inactive)
same,GI50,[13],> 100 µM (inactive)
same,GI50,[14],> 100 µM (inactive)
same,GI50,[15],> 100 µM (inactive)
same,GI50,[16],> 100 µM (inactive)
same,GI50,[17],> 100 µM
same,GI50,[18],> 100 µM (inactive)
same,GI50,[19],> 100 µM (inactive)
same,GI50,[20],> 100 µM (inactive)
same,GI50,[21],> 100 µM (inactive)
same,GI50,[22],> 100 µM (inactive)
same,GI50,[23],> 100 µM (inactive)
same,GI50,[24],> 100 µM (inactive)
same,GI50,[25],> 100 µM (inactive)
same,GI50,[26],> 100 µM (inactive)
same,GI50,[27],> 100 µM (inactive)
same,GI50,[28],> 100 µM (inactive)
same,GI50,[29],> 100 µM (inactive)
same,GI50,[30],> 100 µM (inactive)
same,GI50,[31],> 100 µM (inactive)
same,GI50,[32],> 100 µM (inactive)
same,GI50,[33],> 100 µM (inactive)
same,GI50,[34],> 100 µM (inactive)
same,GI50,[35],> 100 µM (inactive)
same,GI50,[36],> 100 µM (inactive)
same,GI50,[37],> 100 µM (inactive)
same,GI50,[38],> 100 µM (inactive)
same,GI50,[39],> 100 µM (inactive)
same,GI50,[40],> 100 µM (inactive)
same,GI50,[41],5.53 µM (inactive)
same,GI50,[42],> 100 µM (inactive)
same,GI50,[43],> 100 µM (inactive)
same,GI50,[44],> 100 µM (inactive)
same,GI50,[45],> 100 µM (inactive)
same,GI50,[46],> 100 µM (inactive)
same,GI50,[47],> 100 µM (inactive)
same,GI50,[48],0.463 µM (active)
